# Patent US11845759B2, “Opioid compounds and uses thereof” (priority 2018, dated 2023)
# Tests used:
# [1] = Hydrolysis in simulated intestinal fluid at 37° C.; details: for 6-lauroyl-Oxy (%): 6-lauroyl-Oxycodone, simulated intestinal fluid with 0.5% Polysorbate 80, 37° C.
# [2] = Hydrolysis in HCl solutions; format: physicochemical; details: 6,14-bis-lauroyl-Oxycodone, 1.0N HCl (75% EtOH)
# [3] = Hydrolysis in pH buffer/EtOH solutions; format: physicochemical
# μ-opioid receptor [4] = biological target: T1, μ-opioid receptor (Homo sapiens (Human), UniProt P35372); format: binding
# μ-opioid receptor [5] = biological target: T1, μ-opioid receptor; assay: [35S]GTPγS μ-opioid receptor functional assay; format: biochemical; details: for functional profile at μ-opioid receptor (in words): conclusion from Table 23
# [6] = Hydrolysis in human blood serum at 37° C.; details: human blood serum (37° C.)
# [7] = 6,14-bis-lauroyl-Oxycodone, pH 7 buffer (75% EtOH), 0 h
# [8] = 6,14-bis-lauroyl-Oxycodone, pH 7 buffer (75% EtOH), 0.5 h
# [9] = 6,14-bis-lauroyl-Oxycodone, pH 7 buffer (75% EtOH), 2 h
# [10] = 6,14-bis-lauroyl-Oxycodone, pH 7 buffer (75% EtOH), 4 h
# [11] = 6,14-bis-lauroyl-Oxycodone, pH 7 buffer (75% EtOH), 8 h
# [12] = 6,14-bis-lauroyl-Oxycodone, pH 7 buffer (75% EtOH), 24 h
# [13] = 6,14-bis-lauroyl-Oxycodone, pH 9 buffer (75% EtOH), 0 h
# [14] = 6,14-bis-lauroyl-Oxycodone, pH 9 buffer (75% EtOH), 0.5 h
# [15] = 6,14-bis-lauroyl-Oxycodone, pH 9 buffer (75% EtOH), 2 h
# [16] = 6,14-bis-lauroyl-Oxycodone, pH 9 buffer (75% EtOH), 8.5 h
# [17] = 6,14-bis-lauroyl-Oxycodone, pH 9 buffer (75% EtOH), 22.5 h
# [18] = 6,14-bis-lauroyl-Oxycodone, pH 11 buffer (75% EtOH), 0 h
# [19] = 6,14-bis-lauroyl-Oxycodone, pH 11 buffer (75% EtOH), 0.17 h
# [20] = 6,14-bis-lauroyl-Oxycodone, pH 11 buffer (75% EtOH), 0.5 h
# [21] = 6,14-bis-lauroyl-Oxycodone, pH 11 buffer (75% EtOH), 2 h
# [22] = 6,14-bis-lauroyl-Oxycodone, pH 11 buffer (75% EtOH), 8.5 h
# [23] = 6,14-bis-lauroyl-Oxycodone, pH 11 buffer (75% EtOH), 22.5 h
# [24] = 6-lauroyl-Oxycodone, pH 9 buffer (75% EtOH), 0 h
# [25] = 6-lauroyl-Oxycodone, pH 9 buffer (75% EtOH), 0.5 h
# [26] = 6-lauroyl-Oxycodone, pH 9 buffer (75% EtOH), 2 h
# [27] = 6-lauroyl-Oxycodone, pH 9 buffer (75% EtOH), 4 h
# [28] = 6-lauroyl-Oxycodone, pH 9 buffer (75% EtOH), 8 h
# [29] = 6-lauroyl-Oxycodone, pH 11 buffer (75% EtOH), 0 h
# [30] = 6-lauroyl-Oxycodone, pH 11 buffer (75% EtOH), 0.5 h
# [31] = 6-lauroyl-Oxycodone, pH 11 buffer (75% EtOH), 4 h
# [32] = 6-lauroyl-Oxycodone, pH 11 buffer (75% EtOH), 8 h
compound,measurement,setting,value
"COc1ccc2c3c1OC1C(OC(C)=O)=CC[C@@]4(OC(C)=O)[C@@H](C2)N(C)CC[C@]314 (some centres unmarked) [6,14-Diacetyl oxycodone, 6,14-bis-acetyl Oxycodone]",hydrolysis products (in words),"[1]; mixture in simulated intestinal fluid (37° C., pH 6.8, pancreatine)",hydrolyzes to create additional 6-acetyl oxycodone and 14-acetyl oxycodone
"CCCCCCCCCCCC(=O)OC1=CC[C@@]2(OC(=O)CCCCCCCCCCC)[C@H]3Cc4ccc(OC)c5c4[C@@]2(CCN3C)C1O5 (some centres unmarked) [6,14-bis-lauroyl oxycodone]","6,14-bis-lauroyl-Oxy (%)",[2]; 0 h,99%
same,Oxy (%),[2]; 0 h,0%
same,mono-lauroyl-Oxy (%),[2]; 0 h,0%
same,"6,14-bis-lauroyl-Oxy (%)",[2]; 0.5 h,97%
same,Oxy (%),[2]; 0.5 h,0%
same,mono-lauroyl-Oxy (%),[2]; 0.5 h,2.9%
same,"6,14-bis-lauroyl-Oxy (%)",[2]; 2 h,95.1%
same,Oxy (%),[2]; 2 h,0%
same,mono-lauroyl-Oxy (%),[2]; 2 h,4.7%
same,"6,14-bis-lauroyl-Oxy (%)",[2]; 4 h,94%
same,Oxy (%),[2]; 4 h,0%
same,mono-lauroyl-Oxy (%),[2]; 4 h,6%
same,"6,14-bis-lauroyl-Oxy (%)",[2]; 8 h,91.4%
same,Oxy (%),[2]; 8 h,0%
same,mono-lauroyl-Oxy (%),[2]; 8 h,8.6%
same,"6,14-bis-lauroyl-Oxy (%)",[2]; 24 h,77.1%
same,Oxy (%),[2]; 24 h,0%
same,mono-lauroyl-Oxy (%),[2]; 24 h,22.9%
same,"6,14-bis-lauroyl-Oxy (%)",[3]; [7],99%
same,Oxy (%),[3]; [7],0%
same,mono-lauroyl-Oxy (%),[3]; [7],0%
same,"6,14-bis-lauroyl-Oxy (%)",[3]; [8],98%
same,Oxy (%),[3]; [8],0%
same,mono-lauroyl-Oxy (%),[3]; [8],1%
same,"6,14-bis-lauroyl-Oxy (%)",[3]; [9],98%
same,Oxy (%),[3]; [9],0%
same,mono-lauroyl-Oxy (%),[3]; [9],2%
same,"6,14-bis-lauroyl-Oxy (%)",[3]; [10],98%
same,Oxy (%),[3]; [10],0%
same,mono-lauroyl-Oxy (%),[3]; [10],2%
same,"6,14-bis-lauroyl-Oxy (%)",[3]; [11],98%
same,Oxy (%),[3]; [11],0%
same,mono-lauroyl-Oxy (%),[3]; [11],2%
same,"6,14-bis-lauroyl-Oxy (%)",[3]; [12],94.3%
same,Oxy (%),[3]; [12],0%
same,mono-lauroyl-Oxy (%),[3]; [12],5.7%
same,"6,14-bis-lauroyl-Oxy (%)",[3]; [13],99%
same,Oxy (%),[3]; [13],0%
same,mono-lauroyl-Oxy (%),[3]; [13],0%
same,"6,14-bis-lauroyl-Oxy (%)",[3]; [14],98.7%
same,Oxy (%),[3]; [14],0%
same,mono-lauroyl-Oxy (%),[3]; [14],1.3%
same,"6,14-bis-lauroyl-Oxy (%)",[3]; [15],98.4%
same,Oxy (%),[3]; [15],0%
same,mono-lauroyl-Oxy (%),[3]; [15],1.6%
same,"6,14-bis-lauroyl-Oxy (%)",[3]; [16],96.2%
same,Oxy (%),[3]; [16],0%
same,mono-lauroyl-Oxy (%),[3]; [16],3.8%
same,"6,14-bis-lauroyl-Oxy (%)",[3]; [17],93.4%
same,Oxy (%),[3]; [17],0%
same,mono-lauroyl-Oxy (%),[3]; [17],6.6%
same,"6,14-bis-lauroyl-Oxy (%)",[3]; [18],99%
same,Oxy (%),[3]; [18],0%
same,mono-lauroyl-Oxy (%),[3]; [18],0%
same,"6,14-bis-lauroyl-Oxy (%)",[3]; [19],83.7%
same,Oxy (%),[3]; [19],0.5%
same,mono-lauroyl-Oxy (%),[3]; [19],16.3%
same,"6,14-bis-lauroyl-Oxy (%)",[3]; [20],63.9%
same,Oxy (%),[3]; [20],1%
same,mono-lauroyl-Oxy (%),[3]; [20],33.1%
same,"6,14-bis-lauroyl-Oxy (%)",[3]; [21],14.7%
same,Oxy (%),[3]; [21],2.8%
same,mono-lauroyl-Oxy (%),[3]; [21],60.5%
same,"6,14-bis-lauroyl-Oxy (%)",[3]; [22],0%
same,Oxy (%),[3]; [22],5.4%
same,mono-lauroyl-Oxy (%),[3]; [22],94.6%
same,"6,14-bis-lauroyl-Oxy (%)",[3]; [23],0%
same,Oxy (%),[3]; [23],10.2%
same,mono-lauroyl-Oxy (%),[3]; [23],89.8%
same,Ki,μ-opioid receptor [4],22200 nM
same,Ki compared with that of oxycodone (in words),μ-opioid receptor [4],significantly higher
same,binding to μ-opioid receptor (in words),μ-opioid receptor [4],does not bind to μ-opioid receptor well
COCCOCCOCC(=O)OC1=CC[C@@]2(O)[C@H]3Cc4ccc(OC)c5c4[C@@]2(CCN3C)C1O5 (some centres unmarked) [6-PEG oxycodone],EC50,μ-opioid receptor [5],390 nM
same,% Response Agonist,"μ-opioid receptor [5]; Conc. 3 μM, criteria ≥± 50%",90%
same,Ki,μ-opioid receptor [4],22 nM
same,Ki compared with that of oxycodone (in words),μ-opioid receptor [4],comparable
COc1ccc2c3c1OC1C(OC(C)=O)=CCC4[C@@H](C2)N(C)CC[C@]314 (some centres unmarked) [6-acetyl hydrocodone],hydrolysis in human blood serum (in words),[6],hydrolyzed quickly
same,% hydrolyzed to hydrocodone,[6]; 30 minutes,99%
same,% hydrolyzed to hydrocodone,[6]; five minutes,70%
CCCCCCCCCCCC(=O)OC1=CC[C@@]2(O)[C@H]3Cc4ccc(OC)c5c4[C@@]2(CCN3C)C1O5 (some centres unmarked) [6-lauroyl oxycodone],6-lauroyl-Oxy (%),[1]; 0 h,99%
same,6-lauroyl-Oxy (%),[1]; 0.17 h,56.9%
same,6-lauroyl-Oxy (%),[1]; 0.5 h,54.8%
same,6-lauroyl-Oxy (%),[1]; 1 h,52.6%
same,6-lauroyl-Oxy (%),[1]; 2 h,50.8%
same,6-lauroyl-Oxy (%),[1]; with additional fresh intestinal fluid 30 min,18.6%
same,6-lauroyl-Oxy (%),[3]; [24],99%
same,Oxy (%),[3]; [24],0%
same,6-lauroyl-Oxy (%),[3]; [25],98%
same,Oxy (%),[3]; [25],1%
same,6-lauroyl-Oxy (%),[3]; [26],98%
same,Oxy (%),[3]; [26],1%
same,6-lauroyl-Oxy (%),[3]; [27],98%
same,Oxy (%),[3]; [27],1%
same,6-lauroyl-Oxy (%),[3]; [28],98%
same,Oxy (%),[3]; [28],1%
same,6-lauroyl-Oxy (%),[3]; [29],99%
same,Oxy (%),[3]; [29],0%
same,6-lauroyl-Oxy (%),[3]; [30],24.5%
same,Oxy (%),[3]; [30],75.5%
same,6-lauroyl-Oxy (%),[3]; [31],7.2%
same,Oxy (%),[3]; [31],92.8%
same,6-lauroyl-Oxy (%),[3]; [32],6.2%
same,Oxy (%),[3]; [32],93.8%
same,EC50,μ-opioid receptor [5],990 nM
same,% Response Agonist,"μ-opioid receptor [5]; Conc. 3 μM, criteria ≥± 50%",52%
same,Ki,μ-opioid receptor [4],96 nM
same,Ki compared with that of oxycodone (in words),μ-opioid receptor [4],comparable
COc1ccc2c3c1OC1C(=O)CCC4(OC(C)=O)C(C2)N(C)CCC314 (centres unmarked) [14-acetyl oxycodone],% Response Agonist,"μ-opioid receptor [5]; Conc. 3 μM, criteria ≥± 50%",79%
same,functional profile at μ-opioid receptor (in words),μ-opioid receptor [5],μ-receptor agonist as effective as oxycodone
CCCCCCCCCCCC(=O)O[C@@]12CCC(=O)C3Oc4c(OC)ccc5c4[C@@]31CCN(C)[C@@H]2C5 (some centres unmarked) [14-lauroyl oxycodone],% Response Agonist,"μ-opioid receptor [5]; Conc. 100 μM, criteria ≥± 50%",56%
same,% Response Antagonist,"μ-opioid receptor [5]; Conc. 100 μM, criteria ≥± 50%",56%
same,functional profile at μ-opioid receptor (in words),μ-opioid receptor [5],partial agonist and a partial antagonist
